Laboratory results reported in US10603357B2, “Therapeutic TREM-1 peptides” (Universite de Lorraine, priority 2004, dated 2020).
Marks after values point to notes of the source that are not given here.

Legend:
[1] = system: TREM-1/TREM-1 ligand interaction; assay: competition of soluble mouse TREM-1/IgG1 binding to TREM-1 ligand positive peritoneal exudate cells (flow cytometry); details: peptides 100 and 500 μM, pre-incubated 45 minutes on ice; 2 μg/ml mouseTREM-1/hIgG1
Experimental: Cytofluorimetric analysis of peritoneal exudate cells with 2 μg/ml of mouseTREM-1/hIgG1 in the presence of a 500 μM solution per mouse (thin line), 100 μM solution per mouse (dotted line) or absence (thick line) of the peptides is shown. The grey histogram represents immunostaining with human IgG1 as a control.
A possible mechanism of action could be the ability of TREM-1 derived peptide to interfere with TREM-1/TREM-1 ligand interaction. To address this question the Inventors performed competition experiments on TREM-1 ligand positive cells: PEC (Peritoneal Exudate Cells) from CLP treated mice.
Peritoneal exudate cells (PEC) from mice suffering from a caecal ligation and puncture (CLP)-induced peritonitis were subjected to flow cytometry analysis after incubation with a PE-conjugated anti-human IgG1 (Jackson Immunoresearch, Bar Harbor, USA). Competition with TREM-1 peptides was performed by pre-incubating cells with the indicated concentrations of peptides for 45 minutes on ice before adding mTREM-1-IgG1.

rats [2] = assay: LPS-induced endotoxinemia in rats, haemodynamic and biological measurements; assay type: in vivo, rat; details: for effect on plasma IL-1β release: LPS 15 mg/kg (FIG. 13B); for Nitrite/nitrate concentrations after LPS administration: LPS 15 mg/kg (FIG. 14); for Aortic blood flow / Heart Rate / Lactate / MAP / Mesenteric blood flow / pH (arterial): LPS-induced endotoxinemia
Experimental: Animals were randomly grouped (n=10-20) and treated with Escherichia coli LPS (0111:B4, Sigma-Aldrich, Lyon, France) i.p. in combination with the TREM-1 or scrambled peptides.
(§1) Immediately after LPS administration as well as 16 hours after CLP, arterial BP (systolic, diastolic, and mean), heart rate, abdominal aortic blood flow, and mesenteric blood flow were recorded using a procedure described elsewhere (see Mansart, A. et al. Shock 19:38-44 (2003)). Briefly, the left carotid artery and the left jugular vein were cannulated with PE-50 tubing. Arterial BP was continuously monitored by a pressure transducer and an amplifier-recorder system (IOX EMKA Technologies, Paris, France). Perivascular probes (Transonic Systems, Ithaca, N.Y.) wrapped up the upper abdominal aorta and mesenteric artery, allowed to monitor their respective flows by means of a flowmeter (Transonic Systems). After the last measurement (4th hour during LPS experiments and 24th hour after CLP), animals were sacrificed by an overdose of sodium thiopental i.v.
(§2) Blood was sequentially withdrawn from the left carotid artery. Arterial lactate concentrations and blood gases analyses were performed on an automatic blood gas analyser (ABL 735, Radiometer, Copenhagen, Denmark). Concentrations of TNF-α and IL-1β in the plasma were determined by an ELISA test (Biosource, Nivelles, Belgium) according to the recommendations of the manufacturer. Plasmatic concentrations of nitrates/nitrites were measured using the Griess reaction (R&D Systems, Abingdon, UK).

rats [3] = assay: CLP polymicrobial sepsis model in rats, haemodynamic and biological measurements; assay type: in vivo, rat; details: for effect on TNF-α production: CLP (FIG. 16); for Aortic blood flow / Bicarbonate / Heart Rate / Lactate / Mesenteric blood flow / pH: CLP polymicrobial sepsis; for decline in arterial pressure over time: H16 to H24 (FIG. 15)
Experimental: The procedure has been described in details elsewhere (see Mansart, A. et al. Shock 19:38-44 (2003)). Briefly, rats (n=6-10 per group) were anesthetized by i.p. administration of ketamine (150 mg/kg). The caecum was exposed through a 3.0-cm abdominal midline incision and subjected to a ligation of the distal half followed by two punctures with a G21 needle. A small amount of stool was expelled from the punctures to ensure […]. The caecum was replaced into the peritoneal cavity and the abdominal incision closed in two layers. After surgery, all rats were injected s.c. with 50 mL/kg of normal saline solution for fluid resuscitation. TREM-1 or scrambled peptides were then administered as above.
as §1, §2

Sequence: LQVTDSGLYRCVIYHPP [P5]
- inhibition of TREM-1 interaction with its ligand (mTREM-1/IgG1 binding to PEC) [1]: inhibit TREM-1 interaction with its ligand in a dose dependent manner
- attenuation of plasma TNF-α production (rats [2]; LPS 15 mg/kg (FIG. 13A)): ~30%
- effect on plasma IL-1β release (rats [2]): strongly reduced
- Nitrite/nitrate concentrations after LPS administration (rats [2]): remained stable
- Aortic blood flow (rats [2]; H0): 48 ± 9 mL/min
- Heart Rate (rats [2]; H0): 474 ± 49 bpm
- Lactate (rats [2]; H0): 3.4 ± 1.5 mmol/L
- MAP (rats [2]; H0): 115 ± 16 mmHg
- Mesenteric blood flow (rats [2]; H0): 12.8 ± 6.4 mL/min
- pH (arterial) (rats [2]; H0): 7.33 ± 0.04
- Aortic blood flow (rats [2]; H1): 32 ± 8 mL/min
- Heart Rate (rats [2]; H1): 498 ± 26 bpm
- Lactate (rats [2]; H1): 5.4 ± 1.4 mmol/L
- MAP (rats [2]; H1): 99 ± 22 mmHg
- Mesenteric blood flow (rats [2]; H1): 11.4 ± 2.7 mL/min
- pH (arterial) (rats [2]; H1): 7.28 ± 0.06
- Aortic blood flow (rats [2]; H2): 23 ± 4 ^b mL/min
- Heart Rate (rats [2]; H2): 510 ± 42 bpm
- Lactate (rats [2]; H2): 5.5 ± 1.6 mmol/L
- MAP (rats [2]; H2): 101 ± 18 mmHg
- Mesenteric blood flow (rats [2]; H2): 9.2 ± 1.9 mL/min
- pH (arterial) (rats [2]; H2): 7.32 ± 0.07
- Aortic blood flow (rats [2]; H3): 20 ± 7 ^b mL/min
- Heart Rate (rats [2]; H3): 517 ± 62 bpm
- Lactate (rats [2]; H3): 5.9 ± 1.7 ^b mmol/L
- MAP (rats [2]; H3): 93 ± 21 ^b mmHg
- Mesenteric blood flow (rats [2]; H3): 6.0 ± 0.8 mL/min
- pH (arterial) (rats [2]; H3): 7.29 ± 0.11
- Aortic blood flow (rats [2]; H4): 15 ± 6 ^b mL/min
- Heart Rate (rats [2]; H4): 510 ± 26 bpm
- Lactate (rats [2]; H4): 7.4 ± 1.8 ^b mmol/L
- MAP (rats [2]; H4): 89 ± 10 ^b mmHg
- Mesenteric blood flow (rats [2]; H4): 5.0 ± 1.0 mL/min
- pH (arterial) (rats [2]; H4): 7.28 ± 0.12 ^b
- effect on TNF-α production (rats [3]): decrease
- Aortic blood flow (rats [3]; H16): 41 ± 14 mL/min
- Bicarbonate (rats [3]; H16): 18.6 ± 2.0 mmol/L
- Heart Rate (rats [3]; H16): 460 ± 17^b bpm
- Lactate (rats [3]; H16): 3.3 ± 0.4^b mmol/L
- Mesenteric blood flow (rats [3]; H16): 15.3 ± 3.5^b mL/min
- pH (rats [3]; H16): 7.35 ± 0.01^b
- Aortic blood flow (rats [3]; H20): 31 ± 5^b mL/min
- Bicarbonate (rats [3]; H20): 18.0 ± 0.9^a mmol/L
- Heart Rate (rats [3]; H20): 500 ± 17^b bpm
- Lactate (rats [3]; H20): 3.6 ± 0.9^b, c mmol/L
- Mesenteric blood flow (rats [3]; H20): 11.0 ± 6.9^b, c mL/min
- pH (rats [3]; H20): 7.34 ± 0.01^b
- Aortic blood flow (rats [3]; H24): 28 ± 8^b mL/min
- Bicarbonate (rats [3]; H24): 17.1 ± 0.9^a, c mmol/L
- Heart Rate (rats [3]; H24): 510 ± 20 bpm
- Lactate (rats [3]; H24): 4.9 ± 1.1^b, c mmol/L
- Mesenteric blood flow (rats [3]; H24): 8.5 ± 3.5^b, c mL/min
- pH (rats [3]; H24): 7.36 ± 0.01^b, c
- decline in arterial pressure over time (rats [3]; CLP): almost totally abolished
- plasmatic TNF-α (rats [3]; CLP, by H20 (FIG. 16)): almost undetectable

Sequence: LVVTQRPFTRPSEVHMGKFTLKH (listed as Mus musculus) [P1]
- inhibition of TREM-1 interaction with its ligand (mTREM-1/IgG1 binding to PEC) [1]: inhibit TREM-1 interaction with its ligand in a dose dependent manner
- effect on LPS-induced plasma TNF-α production (rats [2]; LPS 15 mg/kg (FIG. 13A)): no effect
- effect on plasma IL-1β release (rats [2]): delayed the IL-1β peak until the third hour after LPS injection, but without attenuation
- Nitrite/nitrate concentrations after LPS administration (rats [2]): increased rapidly
- Aortic blood flow (rats [2]; H0): 49 ± 11 mL/min
- Heart Rate (rats [2]; H0): 464 ± 25 bpm
- Lactate (rats [2]; H0): 2.7 ± 0.1 mmol/L
- MAP (rats [2]; H0): 116 ± 10 mmHg
- Mesenteric blood flow (rats [2]; H0): 12.0 ± 3.7 mL/min
- pH (arterial) (rats [2]; H0): 7.32 ± 0.04
- Aortic blood flow (rats [2]; H1): 39 ± 12 ^a mL/min
- Heart Rate (rats [2]; H1): 492 ± 26 bpm
- Lactate (rats [2]; H1): 4.9 ± 1.1 mmol/L
- MAP (rats [2]; H1): 119 ± 14 mmHg
- Mesenteric blood flow (rats [2]; H1): 10.5 ± 1.7 mL/min
- pH (arterial) (rats [2]; H1): 7.29 ± 0.04
- Aortic blood flow (rats [2]; H2): 26 ± 14 ^a mL/min
- Heart Rate (rats [2]; H2): 492 ± 26 bpm
- Lactate (rats [2]; H2): 5.0 ± 0.9 mmol/L
- MAP (rats [2]; H2): 113 ± 21 mmHg
- Mesenteric blood flow (rats [2]; H2): 7.7 ± 2.7 mL/min
- pH (arterial) (rats [2]; H2): 7.30 ± 0.01
- Aortic blood flow (rats [2]; H3): 22 ± 8 ^a mL/min
- Heart Rate (rats [2]; H3): 480 ± 30 bpm
- Lactate (rats [2]; H3): 5.7 ± 0.7 ^a mmol/L
- MAP (rats [2]; H3): 97 ± 29 ^a mmHg
- Mesenteric blood flow (rats [2]; H3): 5.0 ± 1.0 mL/min
- pH (arterial) (rats [2]; H3): 7.26 ± 0.06
- Aortic blood flow (rats [2]; H4): 16 ± 6 ^a mL/min
- Heart Rate (rats [2]; H4): 480 ± 20 bpm
- Lactate (rats [2]; H4): 7.9 ± 1.7 ^a mmol/L
- MAP (rats [2]; H4): 92 ± 7 ^a mmHg
- Mesenteric blood flow (rats [2]; H4): 4.8 ± 0.9 mL/min
- pH (arterial) (rats [2]; H4): 7.26 ± 0.08 ^a
- effect on TNF-α production (rats [3]): decrease
- Aortic blood flow (rats [3]; H16): 41 ± 12 mL/min
- Bicarbonate (rats [3]; H16): 16.8 ± 4.4 mmol/L
- Heart Rate (rats [3]; H16): 462 ± 16^a bpm
- Lactate (rats [3]; H16): 4.9 ± 0.4 mmol/L
- Mesenteric blood flow (rats [3]; H16): 13.5 ± 7.2 mL/min
- pH (rats [3]; H16): 7.32 ± 0.04
- Aortic blood flow (rats [3]; H20): 28 ± 17^a mL/min
- Bicarbonate (rats [3]; H20): 16.0 ± 5.4^b mmol/L
- Heart Rate (rats [3]; H20): 480 ± 30^a bpm
- Lactate (rats [3]; H20): 5.3 ± 1.1^a, c mmol/L
- Mesenteric blood flow (rats [3]; H20): 5.3 ± 3.0^c mL/min
- pH (rats [3]; H20): 7.31 ± 0.18^a
- Aortic blood flow (rats [3]; H24): 22 ± 16^a mL/min
- Bicarbonate (rats [3]; H24): 11.2 ± 0.8^c mmol/L
- Heart Rate (rats [3]; H24): 420 ± 30 bpm
- Lactate (rats [3]; H24): 6.8 ± 0.9^a, c mmol/L
- Mesenteric blood flow (rats [3]; H24): 4.5 ± 2.1^c mL/min
- pH (rats [3]; H24): 7.24 ± 0.06^a, c
- decline in arterial pressure over time (rats [3]; CLP): almost totally abolished
